From patent US9227971B2, “Pyrazolo[1,5-a]pyrimidine compounds as mTOR inhibitors” (Merck Sharp & Dohme Corp., priority 2010, dated 2016)
Like-named read-outs stand apart in the source and are kept apart here.

Experiments:
[1] = test system: phosphorylated AKT Ser473 (pAKT S473), mTORC2 activity, PC3 cells; assay: mTOR target engagement assay, immunofluorescent cell-based, pAKT S473 readout (mTORC2 activity)
In short: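 After blocking, cells were stained overnight at 4 °C with anti-pAKT S473 antibody, then a fluorescent secondary; inhibition was read as reduced fluorescence intensity.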

[2] = test system: phosphorylated 4E-BP1 Thr37/46 (p4E-BP1 Thr37/46), mTORC1 activity, PC3 cells; assay: mTOR target engagement assay, immunofluorescent cell-based, p4E-BP1 Thr37/46 readout (mTORC1 activity); settings: read-out: p4E-BP1 Thr37/46 IC50
In short: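 Read-out is fluorescence intensity of immunostained p4E-BP1 Thr37/46 in fixed PC3 cells, fitted to a logistic curve for IC50 with DMSO-only wells as top. Cells had been exposed to serial compound dilutions for ninety minutes at 37° C in 5% FBS medium with 0.25% DMSO.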

[3] = Homo sapiens, PC-3, Table 3-1, PC3 cells
[4] = Homo sapiens, PC-3, PC3 cells, compound treatment ninety minutes at 37° C.
[5] = Homo sapiens, PC-3, Table 7-8, PC3 cells
[6] = Homo sapiens, PC-3, Table 6-1, PC3 cells

Which results are given for `CS(=O)(=O)c1c([C@@H]2C[C@H]3CC[C@@H](C2)N3C(=O)c2cc(N)n[nH]2)nc2c(-c3ccc(-c4ccc(F)cc4F)nc3)cnn2c1N` [Compound 3.129, (3-amino-1H-pyrazol-5-yl)((1R,3s,5S)-3-(7-amino-3-(6-(2,4-difluorophenyl)pyridin-3-yl)-6-(methylsulfonyl)pyrazolo[1,5-a]pyrimidin-5-yl)-8-azabicyclo[3.2.1]octan-8-yl)methanone]?
IC50 [1, 3]: 1 to 100 nM; IC50 [2, 3]: 1 to 100 nM

With `CC(=O)c1c([C@@H]2C[C@H]3CC[C@@H](C2)N3C(=O)CO)nc2c(-c3ccc(C#CC4CC4)nc3)cnn2c1N` [Compound 8.61, 1-((1R,3s,5S)-3-(6-acetyl-7-amino-3-(6-(cyclopropylethynyl)pyridin-3-yl)pyrazolo[1,5-a]pyrimidin-5-yl)-8-azabicyclo[3.2.1]octan-8-yl)-2-hydroxyethanone] as the compound, how does the IC50 ([1]; Homo sapiens, PC-3, PC3 cells) read?
The IC50 was 100 to 1000 nM.

What about the IC50 ([2]; Homo sapiens, PC-3, PC3 cells) of the same compound?
Its IC50 is 100 to 1000 nM.

With `CC(=O)c1c([C@@H]2C[C@H]3CC[C@@H](C2)N3C(=O)c2nnc[nH]2)nc2c(-c3cnn(-c4ccc(F)cc4)c3)cnn2c1N` [Compound 1.1.123, 1-(5-((1R,3s,5S)-8-(4H-1,2,4-triazole-3-carbonyl)-8-azabicyclo[3.2.1]octan-3-yl)-7-amino-3-(1-(4-fluorophenyl)-1H-pyrazol-4-yl)pyrazolo[1,5-a]pyrimidin-6-yl)ethanone] as the compound, how does the IC50 [1, 4] read?
Its IC50 is 100 to 1000 nM.

And the IC50 [2, 4]?
The IC50 was 1000 to 10000 nM.

With `Nc1cc([C@@H]2C[C@H]3CC[C@@H](C2)N3C(=O)CO)nc2c(-c3ccc(-c4ccccc4)nc3)cnn12` [Compound 2.8, 1-((1R,3s,5S)-3-(7-amino-3-(6-phenylpyridin-3-yl)pyrazolo[1,5-a]pyrimidin-5-yl)-8-azabicyclo[3.2.1]octan-8-yl)-2-hydroxyethanone] as the compound, how does the IC50 [1, 4] read?
The IC50 was 100 to 1000 nM.

What about the IC50 [2, 4] of the same compound?
The IC50 was 1000 to 10000 nM.

For `N#Cc1c([C@@H]2C[C@H]3CC[C@@H](C2)N3C(=O)c2nnc[nH]2)nc2c(-c3ccc(-c4nccs4)nc3)cnn2c1N` [Compound 5.3, 5-((1R,3s,5S)-8-(4H-1,2,4-triazole-3-carbonyl)-8-azabicyclo[3.2.1]octan-3-yl)-7-amino-3-(6-(thiazol-2-yl)pyridin-3-yl)pyrazolo[1,5-a]pyrimidine-6-carbonitrile], which IC50 [1, 4] is on record?
The IC50 was 1 to 100 nM.

And the IC50 [2, 4]?
The IC50 was 1 to 100 nM.

How did the IC50 ([1]; Table 3-1, PC3 cells) turn out when `Cc1nnc(C(=O)N2[C@@H]3CC[C@H]2C[C@H](c2nc4c(-c5ccc(-c6ccc(F)cc6)nc5)cnn4c(N)c2S(C)(=O)=O)C3)[nH]1` [Compound 3.119, ((1R,3s,5S)-3-(7-amino-3-(6-(4-fuorophenyl)pyridin-3-yl)-6-(methylsulfonyl)pyrazolo[1,5-a]pyrimidin-5-yl)-8-azabicyclo[3.2.1]octan-8-yl)(5-methyl-4H-1,2,4-triazol-3-yl)methanone] was run?
The IC50 was 1 to 100 nM.

And the IC50 ([2]; Table 3-1, PC3 cells)?
Its IC50 is 1 to 100 nM.

Which results are given for `CC(O)c1ccc(-c2cnn3c(N)c(S(C)(=O)=O)c([C@@H]4C[C@H]5CC[C@@H](C4)N5C(=O)c4nnc[nH]4)nc23)cc1` (stereo partly drawn) [Compound 7.51, ((1R,3s,5S)-3-(7-amino-3-(4-(1-hydroxyethyl)phenyl)-6-(methylsulfonyl)pyrazolo [1,5-a]pyrimidin-5-yl)-8-azabicyclo[3.2.1]octan-8-yl)(4H-1,2,4-triazol-3-yl)methanone]?
IC50 [1, 5]: 1 to 100 nM; IC50 [2, 5]: 1 to 100 nM

How did the IC50 [1, 4] turn out when `CC(=O)c1c([C@@H]2C[C@H]3CC[C@@H](C2)N3C(=O)c2nnc[nH]2)nc2c(-c3cnc(-c4ccn(C)n4)c(F)c3)cnn2c1N` [Compound 1.1.112, 1-(5-((1R,3s,5S)-8-(4H-1,2,4-triazole-3-carbonyl)-8-azabicyclo[3.2.1]octan-3-yl)-7-amino-3-(5-fluoro-6-(1-methyl-1H-pyrazol-3-yl)pyridin-3-yl)pyrazolo[1,5-a]pyrimidin-6-yl)ethanone] was run?
Its IC50 is 1000 to 10000 nM.

And the IC50 [2, 4]?
Its IC50 is 1000 to 10000 nM.

How did the IC50 [1, 3] turn out when `CS(=O)(=O)c1c([C@@H]2C[C@H]3CC[C@@H](C2)N3C(=O)c2nnc[nH]2)nc2c(-c3ccc(-c4ccc(F)c(F)c4)nc3)cnn2c1N` [Compound 3.44, ((1R,3s,5S)-3-(7-amino-3-(6-(3,4-difluorophenyl)pyridin-3-yl)-6-(methylsulfonyl)pyrazolo[1,5-a]pyrimidin-5-yl)-8-azabicyclo[3.2.1]octan-8-yl)(4H-1,2,4-triazol-3-yl)methanone] was run?
Its IC50 is 1 to 100 nM.

What about the IC50 [2, 3] of the same compound?
Its IC50 is 1 to 100 nM.

With `CS(=O)(=O)c1c([C@@H]2C[C@H]3CC[C@@H](C2)N3C(=O)CO)nc2c(-c3ccc(-c4ncc[nH]4)nc3)cnn2c1N` [Compound 6.6, 1-((1R,3s,5S)-3-(3-(6-(1H-imidazol-2-yl)pyridin-3-yl)-7-amino-6-(methylsulfonyl)pyrazolo [1,5-a]pyrimidin-5-yl)-8-azabicyclo[3.2.1]octan-8-yl)-2-hydroxyethanone] as the compound, how does the IC50 [1, 6] read?
The IC50 was 1 to 100 nM.

And the IC50 [2, 6]?
Its IC50 is 1 to 100 nM.

Which IC50 ([1]; Homo sapiens, PC-3, PC3 cells) does the source give for `CC(=O)c1c(C2CC3CS(=O)(=O)CC(C2)N3C(=O)c2nc[nH]n2)nc2c(-c3ccc(-c4ccccc4)nc3)cnn2c1N` (stereo not drawn) [Compound 8.38, endo/exo-7-[6-acetyl-7-amino-3-(6-phenyl-3-pyridinyl)pyrazolo[1,5-a]pyrimidin-5-yl]-9-(4h-1,2,4-triazol-3-ylcarbonyl)-3-thia-9-azabicyclo[3.3.1]nonane, 3,3-dioxide] here?
The IC50 was 100 to 1000 nM.

And the IC50 ([2]; Homo sapiens, PC-3, PC3 cells)?
Its IC50 is 100 to 1000 nM.

With `CS(=O)(=O)c1c([C@@H]2C[C@H]3CC[C@@H](C2)N3C(=O)c2cc(N)n[nH]2)nc2c(-c3ccc(-c4ccccc4F)nc3)cnn2c1N` [Compound 3.134] as the compound, how does the IC50 ([1]; Table 3-1, PC3 cells) read?
Its IC50 is 1 to 100 nM.

And the IC50 ([2]; Table 3-1, PC3 cells)?
Its IC50 is 1 to 100 nM.

Which results are given for `Nc1nnc(C(=O)N2C3CCC2CC(c2nc4c(-c5ccc(-c6ccccc6)nc5)cnn4c(N)c2C2CC2)C3)[nH]1` [Compound 8.104, (5-amino-4H-1,2,4-triazol-3-yl)((1R,3s,5S)-3-(7-amino-6-cyclopropyl-3-(6-phenylpyridin-3-yl)pyrazolo[1,5-a]pyrimidin-5-yl)-8-azabicyclo[3.2.1]octan-8-yl)methanone]?
IC50 ([1]; Homo sapiens, PC-3, PC3 cells): 1 to 100 nM; IC50 ([2]; Homo sapiens, PC-3, PC3 cells): 1 to 100 nM

With `COc1ccc(-c2ccc(-c3cnn4c(N)c(S(C)(=O)=O)c([C@@H]5C[C@H]6CC[C@@H](C5)N6C(=O)CO)nc34)cn2)cc1F` [Compound 3.38, 1-((1R,3s,5S)-3-(7-amino-3-(6-(3-fluoro-4-methoxyphenyl)pyridin-3-yl)-6-(methylsulfonyl)pyrazolo[1,5-a]pyrimidin-5-yl)-8-azabicyclo[3.2.1]octan-8-yl)-2-hydroxyethanone] as the compound, how does the IC50 [1, 3] read?
Its IC50 is 1 to 100 nM.

And the IC50 [2, 3]?
Its IC50 is 100 to 1000 nM.

Which results are given for `CC(=O)c1c([C@@H]2C[C@H]3CC[C@@H](C2)N3C(=O)c2nnc(N)[nH]2)nc2c(-c3ccc(-n4cc(C)cn4)nc3)cnn2c1N` [Compound 1.1.130, 1-(7-amino-5-((1R,3s,5S)-8-(5-amino-4H-1,2,4-triazole-3-carbonyl)-8-azabicyclo[3.2.1]octan-3-yl)-3-(6-(4-methyl-1H-pyrazol-1-yl)pyridin-3-yl)pyrazolo[1,5-a]pyrimidin-6-yl)ethanone]?
IC50 [1, 4]: 1 to 100 nM; IC50 [2, 4]: 1 to 100 nM

What does the source list for `CS(=O)(=O)c1c([C@@H]2C[C@H]3CC[C@@H](C2)N3C(=O)c2nnc[nH]2)nc2c(-c3ccc(C4(O)COC4)nc3)cnn2c1N` [Compound 7.48, ((1R,3s,5S)-3-(7-amino-3-(6-(3-hydroxyoxetan-3-yl)pyridin-3-yl)-6-(methylsulfonyl)pyrazolo [1,5-a]pyrimidin-5-yl)-8-azabicyclo[3.2.1]octan-8-yl)(4H-1,2,4-triazol-3-yl)methanone]?
IC50 [1, 5]: 1000 to 10000 nM; IC50 [2, 5]: 1000 to 10000 nM
